Source: patent publication US20090264338A1, “Inhibitor of Insulin Multimer Formation” (priority 2005, published 2009)

Experiments:
[1] = tested on: Fc-fusion human insulin receptor; assay: BIACORE 2000 analysis of the interaction between insulin and insulin receptor in the presence of the peptides; type: binding; conditions: 5 μM insulin forming a hexamer in the presence of 100 μM ZnCl2, 500 μM peptide added
Experimental: A DNA sequence encoding the Fc-fusion human insulin receptor (Bass, J. J. Biol. Chem. 271, 19367 (1996)) was constructed and inserted into the vector pEF-BOS (Nucleic Acids Res. 1990 Sep. 11; 18(17): 5322). Mammalian cells, FreeStyle 293-F, were cultured at 37° C., and the concentration of the cells was adjusted to 1×10^6 cells/mL. The insulin receptor-expressing plasmid was mixed with Cellfectin (Invitrogen Corporation), and added to the cells, followed by culture for an additional two days. The obtained culture supernatant was purified by protein A affinity chromatography, to yield an Fc-fusion human insulin receptor.
Commercially available insulin (manufactured by Sigma-Aldrich Corp.) and the Fc-fusion human insulin receptor obtained by the method above (item (1)) were used to analyze the interaction between insulin and the insulin receptor (BIACORE 2000, manufactured by Biacore Medical Technologies, Inc.). First, PBS with or without 100 μM ZnCl2 was used to prepare 5 μM insulin solutions.
Subsequently, 500 μM INHD1 and INHD2 peptides were added to insulin that forms a hexamer in the presence of ZnCl2, and the interaction between insulin and the insulin receptor was observed.

insulin hexamer = target: T1, insulin hexamer (Homo sapiens, UniProt P01308); assay: Gel filtration chromatography of insulin hexamer formation in the presence of INHD peptide; type: biochemical; conditions: 5 μM insulin
T1 construct: purchased Sigma-Aldrich Corp
Experimental: In order to separately detect insulin hexamers and insulin monomers, gel filtration chromatography was performed. PBS supplemented with 100 μM ZnCl2 was used as a solvent to form hexamers at a concentration of this experiment (5 μM). This is because zinc ion stabilizes insulin hexamers. For the 5 μM insulin solution, the hexamer was the main peak, and the ratio of the monomer was extremely low.
The insulin solution was subjected to gel filtration chromatography in the presence of the INHD peptide to show inhibition of insulin hexamer formation by the INHD peptide.

T1 sequence (P01308 25-54 limits assumed): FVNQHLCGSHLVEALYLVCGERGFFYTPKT
T1 sequence (P01308 90-110 limits assumed): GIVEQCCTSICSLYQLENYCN

peak which represents the insulin hexamer (gel filtration) (insulin hexamer; 500 μM peptide, PBS with 100 μM ZnCl2) | Substance | receptor binding of insulin (interaction between insulin and the insulin receptor) [1] | inhibition of hexamer formation (gel filtration) (insulin hexamer; PBS with 100 μM ZnCl2, compared with INHD1 peptide)
significantly decreased | INHD1: Designed peptide from insulin B-chain positions 5 to 29, with Glu/Lys introduced, Glu13 to Gln, Leu17 to Ala, Cys19 to Ser (HEEGSKKVQELYAKSGERGFFYTPK) | significantly increased to a level approximately equal to that with an insulin monomer | 
 | INHD2: Smaller designed peptide corresponding to the insulin B-chain α-helix at positions 5 to 20 (HEEGSKKVQELYAKSG) | significantly increased to a level approximately equal to that with an insulin monomer | slightly lower than that for the INHD1 peptide
